Assay [1] deals with T1, DspE (Erwinia amylovora, UniProt O54581).
T1 construct: full-length untagged ORF in pGH19, cRNA-injected Xenopus laevis oocytes; printed UniProt entry is strain Ea321, strain of the oocyte ORF not restated
Briefly: two-electrode voltage clamp, Xenopus oocytes. The format is cell-based. (In general: Two-electrode voltage clamp is typically applied to oocytes expressing channels or transporters.)

Assay [2] concerns the target T1, DspE. The assay is described as follows: fluorescent dye uptake, Xenopus oocytes. The assay is classed as cell-based. As to conditions: permeation through channel; ND96 bath saline with fluorescein, 20 h.
Assay [3] deals with T2, AvrE (Pseudomonas syringae group genomosp. 3, UniProt Q887C9).
T2 construct: full-length untagged ORF in pGH19, cRNA-injected Xenopus laevis oocytes
T2 sequence (Q887C9 whole entry): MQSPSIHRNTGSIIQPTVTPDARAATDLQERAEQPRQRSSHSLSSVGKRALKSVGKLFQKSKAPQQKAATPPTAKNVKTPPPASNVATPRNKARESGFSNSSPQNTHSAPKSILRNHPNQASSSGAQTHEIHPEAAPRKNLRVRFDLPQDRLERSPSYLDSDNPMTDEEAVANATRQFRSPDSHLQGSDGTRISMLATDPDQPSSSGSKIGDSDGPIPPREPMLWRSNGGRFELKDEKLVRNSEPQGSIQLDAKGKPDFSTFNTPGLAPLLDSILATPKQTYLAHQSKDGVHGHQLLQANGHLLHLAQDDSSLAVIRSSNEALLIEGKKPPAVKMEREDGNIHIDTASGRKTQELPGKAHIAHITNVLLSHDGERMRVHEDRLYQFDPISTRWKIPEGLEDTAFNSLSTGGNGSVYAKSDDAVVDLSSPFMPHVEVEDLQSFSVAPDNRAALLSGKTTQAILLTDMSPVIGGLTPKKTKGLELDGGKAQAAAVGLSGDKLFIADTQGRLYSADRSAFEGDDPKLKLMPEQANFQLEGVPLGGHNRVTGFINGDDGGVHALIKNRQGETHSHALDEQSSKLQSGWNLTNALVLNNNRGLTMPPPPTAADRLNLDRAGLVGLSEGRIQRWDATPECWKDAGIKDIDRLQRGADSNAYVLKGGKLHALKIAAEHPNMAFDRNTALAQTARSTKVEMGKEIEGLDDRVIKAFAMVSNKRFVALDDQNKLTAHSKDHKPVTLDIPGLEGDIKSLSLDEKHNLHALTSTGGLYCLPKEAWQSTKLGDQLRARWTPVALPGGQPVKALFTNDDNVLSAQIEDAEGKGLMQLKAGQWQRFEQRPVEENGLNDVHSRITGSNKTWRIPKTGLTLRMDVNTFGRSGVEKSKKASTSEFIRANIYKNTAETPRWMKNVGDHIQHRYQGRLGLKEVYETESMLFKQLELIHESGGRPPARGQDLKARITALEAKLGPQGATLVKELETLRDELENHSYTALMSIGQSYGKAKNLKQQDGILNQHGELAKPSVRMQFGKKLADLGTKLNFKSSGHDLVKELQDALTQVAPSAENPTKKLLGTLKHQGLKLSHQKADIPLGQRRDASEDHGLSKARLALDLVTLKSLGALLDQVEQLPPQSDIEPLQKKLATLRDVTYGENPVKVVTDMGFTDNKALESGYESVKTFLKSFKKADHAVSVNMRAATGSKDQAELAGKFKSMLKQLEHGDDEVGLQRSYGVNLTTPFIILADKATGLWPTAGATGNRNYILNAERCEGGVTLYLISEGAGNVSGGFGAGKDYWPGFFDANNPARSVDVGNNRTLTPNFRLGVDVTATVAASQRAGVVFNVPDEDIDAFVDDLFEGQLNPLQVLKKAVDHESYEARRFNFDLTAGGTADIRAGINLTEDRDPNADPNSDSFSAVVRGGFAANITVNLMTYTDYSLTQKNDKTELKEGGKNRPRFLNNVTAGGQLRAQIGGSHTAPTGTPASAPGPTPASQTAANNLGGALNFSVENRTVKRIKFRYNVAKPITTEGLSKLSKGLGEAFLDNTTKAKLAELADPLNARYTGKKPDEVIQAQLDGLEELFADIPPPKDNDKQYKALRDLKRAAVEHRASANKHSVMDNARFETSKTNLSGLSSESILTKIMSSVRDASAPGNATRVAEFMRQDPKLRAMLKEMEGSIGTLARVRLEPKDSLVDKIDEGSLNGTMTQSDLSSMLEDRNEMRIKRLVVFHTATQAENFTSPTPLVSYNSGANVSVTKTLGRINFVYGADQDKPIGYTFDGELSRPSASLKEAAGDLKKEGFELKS
Briefly: fluorescent dye uptake, Xenopus oocytes. The format is cell-based. As to conditions: permeation through channel; ND96 bath saline with fluorescein, 20 h.

Assay [4] concerns the target T2, AvrE. Briefly: two-electrode voltage clamp, Xenopus oocytes. The format is cell-based. As to conditions: 50 mV test pulse; ND96 saline, pH 7.5; inhibitor in bath saline.
The target of the next assay is T3, DspE (MBP-DspE) (Erwinia amylovora, UniProt O54581).
T3 construct: full-length, N-terminal MBP-His8-PPX-FLAG tag kept; E. coli BL21(DE3); reconstituted in soybean liposomes; printed UniProt entry is strain Ea321, cloned gene from Ea273
The assay is described as follows: liposome carboxyfluorescein release inhibition. The assay is classed as biochemical. As to conditions: 20 mM HEPES, 300 mM NaCl, pH 8.0; 0.05-0.15 μM DspE; soybean lipid liposomes; channel blocker.

T1 sequence (O54581 whole entry): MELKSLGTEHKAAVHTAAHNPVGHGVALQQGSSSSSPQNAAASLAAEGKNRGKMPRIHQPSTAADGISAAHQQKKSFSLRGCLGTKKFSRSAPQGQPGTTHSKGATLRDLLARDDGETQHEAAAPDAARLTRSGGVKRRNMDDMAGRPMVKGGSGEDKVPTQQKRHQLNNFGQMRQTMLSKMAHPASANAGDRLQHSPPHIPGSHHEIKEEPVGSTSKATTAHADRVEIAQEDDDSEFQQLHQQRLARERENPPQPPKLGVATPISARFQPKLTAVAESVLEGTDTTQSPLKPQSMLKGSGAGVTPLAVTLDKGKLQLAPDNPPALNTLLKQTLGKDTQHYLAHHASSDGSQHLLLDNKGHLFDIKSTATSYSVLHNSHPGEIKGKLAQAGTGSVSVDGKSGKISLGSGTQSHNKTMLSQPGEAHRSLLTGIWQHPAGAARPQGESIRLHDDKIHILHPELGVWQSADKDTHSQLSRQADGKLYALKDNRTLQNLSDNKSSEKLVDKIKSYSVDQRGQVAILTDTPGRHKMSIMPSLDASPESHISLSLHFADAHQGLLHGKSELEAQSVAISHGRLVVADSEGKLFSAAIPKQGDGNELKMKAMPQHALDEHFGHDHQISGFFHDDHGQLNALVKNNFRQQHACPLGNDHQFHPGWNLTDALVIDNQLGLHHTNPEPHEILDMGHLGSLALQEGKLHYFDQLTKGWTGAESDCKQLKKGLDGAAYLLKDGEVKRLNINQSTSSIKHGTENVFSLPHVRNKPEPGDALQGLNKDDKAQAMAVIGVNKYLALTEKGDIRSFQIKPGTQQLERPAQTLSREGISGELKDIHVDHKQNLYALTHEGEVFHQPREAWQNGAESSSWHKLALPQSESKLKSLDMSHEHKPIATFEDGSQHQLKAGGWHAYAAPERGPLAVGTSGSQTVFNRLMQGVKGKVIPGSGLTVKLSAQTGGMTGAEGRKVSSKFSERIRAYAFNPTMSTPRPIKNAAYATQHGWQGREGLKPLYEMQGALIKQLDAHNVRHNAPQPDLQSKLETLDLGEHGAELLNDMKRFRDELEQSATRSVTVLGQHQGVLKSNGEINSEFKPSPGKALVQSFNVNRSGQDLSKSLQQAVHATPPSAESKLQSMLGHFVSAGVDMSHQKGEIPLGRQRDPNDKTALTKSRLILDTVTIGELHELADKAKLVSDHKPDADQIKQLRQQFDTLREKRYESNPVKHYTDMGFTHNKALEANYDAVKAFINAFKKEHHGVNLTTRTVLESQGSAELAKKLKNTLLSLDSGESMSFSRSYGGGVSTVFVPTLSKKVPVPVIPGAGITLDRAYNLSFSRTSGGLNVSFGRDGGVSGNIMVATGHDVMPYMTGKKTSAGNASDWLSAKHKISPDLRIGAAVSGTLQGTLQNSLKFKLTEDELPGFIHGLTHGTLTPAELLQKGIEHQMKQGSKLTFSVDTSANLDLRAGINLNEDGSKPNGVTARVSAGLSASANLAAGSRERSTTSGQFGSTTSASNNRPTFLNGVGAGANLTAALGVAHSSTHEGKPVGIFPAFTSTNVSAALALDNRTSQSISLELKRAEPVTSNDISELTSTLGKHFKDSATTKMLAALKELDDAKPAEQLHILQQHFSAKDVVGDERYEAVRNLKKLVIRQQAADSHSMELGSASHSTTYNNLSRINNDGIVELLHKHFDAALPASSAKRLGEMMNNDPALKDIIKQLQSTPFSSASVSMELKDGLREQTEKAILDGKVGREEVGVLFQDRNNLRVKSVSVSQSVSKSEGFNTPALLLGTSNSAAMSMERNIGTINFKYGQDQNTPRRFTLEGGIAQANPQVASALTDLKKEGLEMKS

For the compound `NCCNC(=O)CCN(CCC(=O)NCCN)CCN(CCC(=O)NCCN)CCC(=O)NCCN` [G0, PAMAM G0], at DspE [1] (read-out: % inhibition at 10 mM), the inhibition at 10000 µM came to 68%.

Regarding `O=C1OC2(c3ccc(O)cc3Oc3cc(O)ccc32)c2ccccc21` [fluorescein], the “fluorescent dye uptake, Xenopus oocytes” value at DspE [2] is recorded as “fluorescein entered oocytes expressing DspE or AvrE, whereas eGFP could not”; on AvrE [3] it was “fluorescein entered oocytes expressing DspE or AvrE, whereas eGFP could not”.

Take PAMAM G1: the “% inhibition at 10 mM” value on AvrE [4] was determined as 93%; on DspE [1] (50 mV test pulse, ND96 saline, pH 7.5, inhibitor in bath saline), 71%. Besides, the IC50 on DspE (MBP-DspE) amounted to 31 µM.

In general, inhibition refers to how much of the control response was suppressed. By % inhibition is commonly meant the share of the control response that was lost under treatment. The low end stands for little suppression, the high end for strong suppression. For orientation: IC50 means the midpoint of a concentration-inhibition curve.

Source of the values: doi:10.1101/2023.07.29.547699, “Bacterial pathogens deliver water/solute-permeable channels as a virulence strategy” (bioRxiv, 2023).
